How the values were obtained:
[1] = biological target: T1, human CCR2 (Homo sapiens, UniProt P41597); assay: Functional Ca2+ release test (B-1); type: cell-based; settings: Chem-1 cell line transfected with human CCR2; 50% inhibition of the MCP-1 effect, MCP-1 at EC50 (about 5 nM); in some cases means of several determinations
T1 construct: host or cells: Chem-1 cell line
T1 sequence (P41597 1-360 isoform P41597-2): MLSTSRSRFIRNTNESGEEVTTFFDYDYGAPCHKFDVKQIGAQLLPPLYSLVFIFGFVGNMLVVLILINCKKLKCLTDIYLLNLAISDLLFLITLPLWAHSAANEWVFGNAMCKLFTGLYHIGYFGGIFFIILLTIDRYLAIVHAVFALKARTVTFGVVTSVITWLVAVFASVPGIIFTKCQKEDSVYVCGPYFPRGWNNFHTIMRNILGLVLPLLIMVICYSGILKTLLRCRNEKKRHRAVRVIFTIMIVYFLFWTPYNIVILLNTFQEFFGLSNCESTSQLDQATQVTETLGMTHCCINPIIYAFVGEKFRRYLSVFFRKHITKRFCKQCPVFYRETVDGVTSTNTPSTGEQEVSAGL
Procedure, shortened: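 Inhibition of MCP-1-evoked Ca2+ release was measured over 120 s by fluorescence imaging in Fluo-4-loaded, human CCR2-transfected Chem-1 cells. Compounds, tested in 10-point 1:3.16 series, were added 10 min before agonist at its EC50 (typically about 5 nM). IC50 values were obtained by 4-parameter logistic fitting.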

[2] = biological target: T2, murine CCR2 (Mus musculus, UniProt P51683); assay: Functional β-arrestin recruiting test with murine MCP-1 (B-2b); type: cell-based; settings: U2OS β-arrestin cell line transfected with murine CCR2; agonist murine MCP-1; in some cases means of several determinations
T2 construct: host or cells: U2OS β-arrestin cell line
T2 sequence (P51683 whole entry): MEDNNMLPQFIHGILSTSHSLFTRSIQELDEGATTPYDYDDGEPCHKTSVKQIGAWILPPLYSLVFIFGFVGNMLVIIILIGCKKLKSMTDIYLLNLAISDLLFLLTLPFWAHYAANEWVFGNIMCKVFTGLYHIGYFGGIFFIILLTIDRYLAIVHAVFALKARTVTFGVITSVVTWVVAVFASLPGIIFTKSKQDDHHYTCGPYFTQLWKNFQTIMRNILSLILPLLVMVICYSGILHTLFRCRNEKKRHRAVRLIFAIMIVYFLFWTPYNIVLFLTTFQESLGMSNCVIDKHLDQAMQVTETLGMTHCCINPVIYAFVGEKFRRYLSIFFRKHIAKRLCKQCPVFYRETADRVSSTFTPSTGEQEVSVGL
Procedure, shortened: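 In a PathHunter β-galactosidase complementation assay, U2OS cells expressing murine CCR2 were preincubated 10 min with compound (10-point, 1:3.16 dilutions), then challenged with murine MCP-1 at its predetermined EC50 for 90 min at 37 °C. Luminescence was read after 60 min, and IC50 was fitted with a 4-parameter Hill function.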

Compound	IC50 [1]	IC50 [2]
CC(C)(C)Sc1cccnc1-c1nc(C(F)(F)F)c(Oc2ccc(Cl)c(C(F)(F)F)c2)c(=O)[nH]1 [Example 190]	0.062 µM	2.11 µM
CSc1ccnc(-c2nc(C(F)(F)F)c(Oc3ccc(Cl)c(C(F)(F)F)c3)c(=O)[nH]2)c1 [Example 191, 5-[4-chloro-3-(trifluoromethyl)phenoxy)-2-[4-(methylsulphanyl)pyridin-2-yl]-6-(trifluoromethyl)pyrimidin-4(3H)-one]	0.005 µM	0.693 µM
Cc1ccc(-c2nc(C(F)(F)F)c(Oc3ccc(Cl)c(C(F)(F)F)c3)c(=O)[nH]2)nc1C [Example 158, 5-[4-chloro-3-(trifluoromethyl)phenoxy]-2-(5,6-dimethylpyridin-2-yl)-6-(trifluoromethyl)pyrimidin-4(3H)-one]	0.0087 µM	0.983 µM
COc1cc(C)nc(-c2nc(C(F)(F)F)c(Oc3ccc(Cl)c(C(F)(F)F)c3)c(=O)[nH]2)n1 [Example 184, 5-[4-chloro-3-(trifluoromethyl)phenoxy]-4′-methoxy-6′-methyl-6-(trifluoromethyl)-2,2′-bipyrimidin-4(3H)-one]	0.0008 µM	0.221 µM
O=c1[nH]c(-c2nscc2O)nc(C(F)(F)F)c1Oc1ccc(Cl)c(C(F)(F)F)c1 [Example 239]	0.0026 µM	0.089 µM
CNc1cccc(-c2nc(C(F)(F)F)c(Oc3ccc(Cl)c(Cl)c3)c(=O)[nH]2)n1 [Example 166, 5-(3,4-dichlorophenoxy)-2-[6-(methylamino)pyridin-2-yl]-6-(trifluoromethyl)pyrimidin-4(3H)-one]	0.0088 µM	0.277 µM
COCc1cc(-c2nc(C(F)(F)F)c(Oc3ccc(Cl)c(C(F)(F)F)c3)c(=O)[nH]2)no1 [Example 221]	0.0013 µM	0.447 µM
O=c1[nH]c(-c2ccc(Cl)cn2)nc(C(F)(F)F)c1Oc1ccc(Cl)c(C(F)(F)F)c1 [Example 195, 2-(5-chloropyridin-2-yl)-5-[4-chloro-3-(trifluoromethyl)phenoxy]-6-(trifluoromethyl)pyrimidin-4(3H)-one]	0.0011 µM	0.157 µM
Nc1ccc(-c2nc(C(F)(F)F)c(Oc3ccc(Cl)c(Cl)c3)c(=O)[nH]2)nn1 [Example 121, 2-(6-aminopyridazin-3-yl)-5-(3,4-dichlorophenoxy)-6-(trifluoromethyl)pyrimidin-4(3H)-one]	0.0005 µM	0.149 µM
O=c1[nH]c(-c2cc(C3CC3)on2)nc(C(F)(F)F)c1Oc1ccc(Cl)c(C(F)(F)F)c1 [Example 220]	0.0035 µM	0.775 µM
COc1cc(OC)nc(-c2nc(C(F)(F)F)c(Oc3ccc(Cl)c(Cl)c3)c(=O)[nH]2)n1 [Example 156, 5-(3,4-dichlorophenoxy)-4′,6′-dimethoxy-6-(trifluoromethyl)-2,2′-bipyrimidin-4(3H)-one]	0.0007 µM	0.244 µM
Cc1ccc(-c2nc(C(F)(F)F)c(Oc3ccc(Cl)c(C(F)(F)F)c3)c(=O)[nH]2)nc1 [Example 193, 5-[4-chloro-3-(trifluoromethyl)phenoxy]-2-(5-methylpyridin-2-yl)-6-(trifluoromethyl)pyrimidin-4(3H)-one]	0.0007 µM	0.079 µM
O=c1[nH]c(-c2ccon2)nc(C(F)(F)F)c1Oc1ccc(Cl)c(C(F)(F)F)c1 [Example 230]	0.0004 µM	0.044 µM
Nc1ncc(-c2nc(C(F)(F)F)c(Oc3ccc(Cl)c(Cl)c3)c(=O)[nH]2)cn1 [Example 154, 2′-amino-5-(3,4-dichlorophenoxy)-6-(trifluoromethyl)-2,5′-bipyrimidin-4(3H)-one]	0.037 µM	1.93 µM
O=c1[nH]c(-c2nsc(Cl)c2Cl)nc(C(F)(F)F)c1Oc1ccc(Cl)c(Cl)c1 [Example 227]	0.0064 µM	0.164 µM
Cc1cc(Oc2c(C(F)(F)F)nc(-c3ncccc3Cl)[nH]c2=O)ccc1Cl [Example 197, 5-(4-chloro-3-methylphenoxy)-2-(3-chloropyridin-2-yl)-6-(trifluoromethyl)pyrimidin-4(3H)-one]	0.0013 µM	0.083 µM
COc1csnc1-c1nc(C(F)(F)F)c(Oc2ccc(Cl)c(Cl)c2)c(=O)[nH]1 [Example 237]	0.001 µM	0.08 µM
CCc1cc(-c2nc(C(F)(F)F)c(Oc3ccc(Cl)c(Cl)c3)c(=O)[nH]2)no1 [Example 218]	0.0039 µM	0.584 µM
Cn1nc(-c2nc(C(F)(F)F)c(Oc3ccc(Cl)c(C(F)(F)F)c3)c(=O)[nH]2)c2ccccc21 [Example 137, 5-[4-chloro-3-(trifluoromethyl)phenoxy]-2-(1-methyl-1H-indazol-3-yl)-6-(trifluoromethyl)pyrimidin-4(3H)-one]	0.016 µM	0.334 µM
CC(C)Oc1ccnc(-c2nc(C(F)(F)F)c(Oc3ccc(Cl)c(C(F)(F)F)c3)c(=O)[nH]2)c1 [Example 150, 5-[4-chloro-3-(trifluoromethyl)phenoxy]-2-(4-isopropoxypyridin-2-yl)-6-(trifluoromethyl)pyrimidin-4(3H)-one]	0.023 µM	1.34 µM
COc1cncnc1-c1nc(C(F)(F)F)c(Oc2ccc(Cl)c(Cl)c2)c(=O)[nH]1 [Example 143, 5-(3,4-dichlorophenoxy)-5′-methoxy-6-(trifluoromethyl)-2,4′-bipyrimidin-4(3H)-one]	0.0011 µM	0.086 µM
Nc1ccc(-c2nc(C(F)(F)F)c(Oc3ccc(Cl)c(C(F)(F)F)c3)c(=O)[nH]2)nn1 [Example 153, 2-(6-aminopyridazin-3-yl)-5-[4-chloro-3-(trifluoromethyl)phenoxy]-6-(trifluoromethyl)pyrimidin-4(3H)-one]	0.0007 µM	0.087 µM
O=c1[nH]c(-c2ncccc2Br)nc(C(F)(F)F)c1Oc1ccc(Cl)c(C(F)(F)F)c1 [Example 182, 2-(3-bromopyridin-2-yl)-5-[4-chloro-3-(trifluoromethyl)phenoxy]-6-(trifluoromethyl)pyrimidin-4(3H)-one]	0.0003 µM	0.0084 µM
CCc1cc(-c2nc(C(F)(F)F)c(Oc3ccc(Cl)c(C(F)(F)F)c3)c(=O)[nH]2)no1 [Example 217]	0.0018 µM	0.874 µM
CC(C)Oc1cnn(-c2nc(C(F)(F)F)c(Oc3ccc(Cl)c(Cl)c3)c(=O)[nH]2)c1 [Example 250]	0.0041 µM	0.942 µM
CN(C)c1ccc(-c2nc(C(F)(F)F)c(Oc3ccc(Cl)c(Cl)c3)c(=O)[nH]2)nn1 [Example 200]	0.0012 µM	0.359 µM
O=c1[nH]c(-c2cccnn2)nc(C(F)(F)F)c1Oc1ccc(Cl)c(Cl)c1 [Example 125, 5-(3,4-dichlorophenoxy)-2-(pyridazin-3-yl)-6-(trifluoromethyl)pyrimidin-4(3H)-one]	0.0095 µM	0.475 µM
CC(=O)Nc1ccc(-c2nc(C(F)(F)F)c(Oc3ccc(Cl)c(C(F)(F)F)c3)c(=O)[nH]2)nc1 [Example 199]	0.0006 µM	0.11 µM
CC(C)(C)Oc1cccc(-c2nc(C(F)(F)F)c(Oc3ccc(Cl)c(C(F)(F)F)c3)c(=O)[nH]2)n1 [Example 151, 2-(6-tert-butoxypyridin-2-yl)-5-[4-chloro-3-(trifluoromethyl)phenoxy]-6-(trifluoromethyl)pyrimidin-4(3H)-one]	0.096 µM	3.68 µM
O=c1[nH]c(-c2n[nH]c3ccccc23)nc(C(F)(F)F)c1Oc1ccc(Cl)c(C(F)(F)F)c1 [Example 140, 5-[4-chloro-3-(trifluoromethyl)phenoxy]-2-(1H-indazol-3-yl)-6-(trifluoromethyl)pyrimidin-4(3H)-one]	0.0008 µM	0.075 µM
